{
  "source": "paper PMC11722533",
  "about": "“Discovery and mechanism of a highly selective, antifungal acetyl CoA synthetase inhibitor” (Research Square, 2025)",
  "key": {"[1]": {"target": "T1, CnAcs1 (acetyl CoA synthetase) (Cryptococcus neoformans, UniProt J9VFT1)", "T1 construct": "gene CNAG_00797; His-tagged recombinant CnAcs1 expressed in E. coli", "T1 sequence (J9VFT1 1-680)": "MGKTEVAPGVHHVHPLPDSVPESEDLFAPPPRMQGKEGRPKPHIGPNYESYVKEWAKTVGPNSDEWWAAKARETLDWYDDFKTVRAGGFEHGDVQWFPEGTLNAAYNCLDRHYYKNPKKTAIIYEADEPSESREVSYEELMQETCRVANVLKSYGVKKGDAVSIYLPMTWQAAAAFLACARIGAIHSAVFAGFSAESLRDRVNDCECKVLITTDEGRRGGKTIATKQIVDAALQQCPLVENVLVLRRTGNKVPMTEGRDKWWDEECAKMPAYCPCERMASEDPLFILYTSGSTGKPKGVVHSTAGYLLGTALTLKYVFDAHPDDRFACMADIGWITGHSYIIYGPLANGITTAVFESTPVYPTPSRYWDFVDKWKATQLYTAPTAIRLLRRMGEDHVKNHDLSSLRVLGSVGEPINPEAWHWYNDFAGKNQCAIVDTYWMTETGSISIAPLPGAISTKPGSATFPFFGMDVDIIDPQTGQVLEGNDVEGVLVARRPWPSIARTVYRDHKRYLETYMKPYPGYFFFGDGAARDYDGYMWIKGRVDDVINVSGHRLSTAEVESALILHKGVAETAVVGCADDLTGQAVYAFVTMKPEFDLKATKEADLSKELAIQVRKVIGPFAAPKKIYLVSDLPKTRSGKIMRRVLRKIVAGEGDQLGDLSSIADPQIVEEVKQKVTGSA", "assay": "coupled pyrophosphate-release enzyme assay", "type": "biochemical"}, "[2]": {"target": "T1, CnAcs1 (acetyl CoA synthetase)", "assay": "X-ray co-crystal structure", "type": "biochemical", "conditions": "cited from earlier work", "from_the_text": "X-ray co-crystal structure on CnAcs1 (acetyl CoA synthetase) | we obtained an X-ray crystal structure of CnAcs1 bound to the cyclopropyl-AMP ester"}, "[3]": {"target": "Cryptococcus neoformans Acs1 (acetyl CoA synthetase) (C. neoformans)", "assay": "crystal structure; co-crystal of CnAcs1 (10 mg/mL in 20 mM NaCl, 20 mM Tris pH 8.5, 1 mM TCEP) with 2 mM isoxazole 1; sitting drop vapor diffusion at 18 °C; PDB 9CD8"}, "[4]": {"target": "Cryptococcus neoformans Acs1 (acetyl CoA synthetase) (C. neoformans)", "assay": "mass photometry; single molecule, in solution, to low concentrations; with and without supra-inhibitory isoxazole 1 (apparent size unchanged)"}},
  "data": [
    {"molecule": "O=C(NNC(=O)c1csnn1)c1ccc(Cl)cc1", "note": "[MMV084978]", "values": [
      {"measurement": "IC50", "setting": "[1]", "result": 2.8, "unit": "µM"}
    ]},
    {"molecule": "Nc1ncnc2c1ncn2[C@@H]1O[C@H](COP(=O)(O)OC2CC2)[C@@H](O)[C@H]1O", "note": "[cyclopropyl-AMP]", "values": [
      {"measurement": "IC50", "setting": "[2]", "result": 9, "unit": "µM"}
    ]},
    {"molecule": "Cryptococcus neoformans Acs1 (acetyl CoA synthetase) (enzyme)", "values": [
      {"measurement": "stoichiometry N", "setting": "[3]", "result": 3},
      {"measurement": "stoichiometry N", "setting": "[4]", "result": 3}
    ]}
  ]
}
